A compilation of properties of binary mixtures (doi:10.1016/j.molliq.2013.10.014)

Test: xn = mol fraction of the nth substance listed
Settings: 100 kPa

c1ccsc1 + CCCC[n+]1ccn(C)c1.O=S(=O)([N-]S(=O)(=O)C(F)(F)F)C(F)(F)F
viscosity [mPa·s]
Settings	x1 = 0.089	x1 = 0.276	x1 = 0.336	x1 = 0.561	x1 = 0.77	x1 = 1
298.15 K	42.6	26.6	23.2	–	6.86	–
308.15 K	–	–	16.58	10.95	5.35	0.585
318.15 K	20.8	13.9	12.37	8.45	4.29	0.525
328.15 K	15.53	10.66	9.54	6.72	3.52	0.47

c1ccccc1 + CCCC[n+]1ccn(C)c1.O=S(=O)([O-])C(F)(F)F
x1 = 1
Settings	viscosity [mPa·s]
298.15 K	0.605
328.15 K	0.363

c1ccccc1 + CC[n+]1ccn(C)c1.O=S(=O)([N-]S(=O)(=O)C(F)(F)F)C(F)(F)F
x1 = 1
Settings	viscosity [mPa·s]
298.15 K	0.605
308.15 K	0.527
318.15 K	0.466
328.15 K	0.363

CCCC[n+]1ccn(C)c1.O=S(=O)([O-])C(F)(F)F + c1ccccc1
viscosity [mPa·s]
Settings	x2 = 0	x2 = 0.122	x2 = 0.304	x2 = 0.353	x2 = 0.467	x2 = 0.573
298.15 K	–	–	37.2	32.8	19.8	–
308.15 K	56.4	–	–	22.6	14.22	9.37
318.15 K	38.3	29.2	18.23	16.33	–	–
328.15 K	27.3	21.2	–	12.3	–	5.71

CC[n+]1ccn(C)c1.O=S(=O)([N-]S(=O)(=O)C(F)(F)F)C(F)(F)F + c1ccccc1
viscosity [mPa·s]
Settings	x2 = 0	x2 = 0.135	x2 = 0.339	x2 = 0.471	x2 = 0.492
298.15 K	33	–	–	11.41	10.4
308.15 K	23.7	18.44	11.75	8.65	7.98
318.15 K	17.69	14.02	9.11	–	6.31
328.15 K	–	10.93	–	5.5	5.16

CCCC[n+]1ccn(C)c1.O=S(=O)([N-]S(=O)(=O)C(F)(F)F)C(F)(F)F + c1ccsc1
x2 = 0
Settings	viscosity [mPa·s]
298.15 K	51.32
308.15 K	34.4
318.15 K	24.4
